Assay results from ChEMBL document CHEMBL3797052 (Eur J Med Chem, 2016).

What was measured:
[1] = Antiproliferative activity against human SKOV3 cells assessed as growth inhibition after 48 hrs by sulforhodamine B assay; format: functional; conditions: SK-OV-3, 48 h; for CC50: read-out: LC50 (the source's name)
[2] = Antiproliferative activity against human OVCAR4 cells assessed as growth inhibition after 48 hrs by sulforhodamine B assay; format: functional; conditions: OVCAR-4, 48 h; for CC50: read-out: LC50 (the source's name)
[3] = Antiproliferative activity against human HL-60(TB) cells assessed as cell growth at 10^-7 M after 48 hrs by sulforhodamine B assay; format: functional; conditions: HL-60, 48 h, read-out: Activity
[4] = Antiproliferative activity against human RPMI8226 cells assessed as cell growth at 10^-7 M after 48 hrs by sulforhodamine B assay; format: functional; conditions: RPMI-8226, 48 h, read-out: Activity
[5] = tested on: NCI-H460; assay: Antiproliferative activity against human NCI-H460 cells assessed as cell growth at 10^-7 M after 48 hrs by sulforhodamine B assay; format: functional; conditions: NCI-H460, 48 h, read-out: Activity
[6] = Antiproliferative activity against human HCC2998 cells assessed as cell growth at 10^-7 M after 48 hrs by sulforhodamine B assay; format: functional; conditions: HCC 2998, 48 h, read-out: Activity
[7] = Antiproliferative activity against human HCT116 cells assessed as cell growth at 10^-7 M after 48 hrs by sulforhodamine B assay; format: functional; conditions: HCT-116, 48 h, read-out: Activity
[8] = tested on: KM12; assay: Antiproliferative activity against human KM12 cells assessed as cell growth at 10^-7 M after 48 hrs by sulforhodamine B assay; format: functional; conditions: KM12, 48 h, read-out: Activity
[9] = tested on: U-251; assay: Antiproliferative activity against human U251 cells assessed as cell growth at 10^-7 M after 48 hrs by sulforhodamine B assay; format: functional; conditions: U-251, 48 h, read-out: Activity
[10] = Antiproliferative activity against human BT549 cells assessed as cell growth at 10^-4 M after 48 hrs by sulforhodamine B assay; format: functional; conditions: BT-549, 48 h, read-out: Activity
[11] = tested on: SK-MEL-28; assay: Antiproliferative activity against human SK-MEL-28 cells assessed as growth inhibition after 48 hrs by sulforhodamine B assay; format: functional; conditions: SK-MEL-28, 48 h; for CC50: read-out: LC50 (the source's name)
[12] = tested on: SK-MEL-2; assay: Antiproliferative activity against human SK-MEL-2 cells assessed as cell growth at 10^-7 M after 48 hrs by sulforhodamine B assay; format: functional; conditions: SK-MEL-2, 48 h, read-out: Activity
[13] = Antiproliferative activity against human DU145 cells assessed as cell growth at 10^-7 M after 48 hrs by sulforhodamine B assay; format: functional; conditions: DU-145, 48 h, read-out: Activity
[14] = Antiproliferative activity against human SF295 cells assessed as growth inhibition after 48 hrs by sulforhodamine B assay; format: functional; conditions: SF-295, 48 h; for CC50: read-out: LC50 (the source's name)
[15] = tested on: SR; assay: Antiproliferative activity against human SR cells assessed as growth inhibition after 48 hrs by sulforhodamine B assay; format: functional
[16] = tested on: K562; assay: Antiproliferative activity against human K562 cells assessed as growth inhibition after 48 hrs by sulforhodamine B assay; format: functional; conditions: K562, 48 h; for CC50: read-out: LC50 (the source's name)
[17] = tested on: MCF7; assay: Antiproliferative activity against human MCF7 cells assessed as growth inhibition after 48 hrs by sulforhodamine B assay; format: functional; conditions: MCF7, 48 h; for CC50: read-out: LC50 (the source's name)
[18] = target: CYP2C9 (Homo sapiens, UniProt P11712); assay: Inhibition of recombinant human CYP2C9 assessed as remaining enzyme activity using CYP2C9 green as substrate at 10 uM after 5 mins in presence of NADP by fluorescence plate reader analysis; format: ADME; conditions: recombinant human CYP2C9, probe CYP2C9 green, read-out: Activity
[19] = target: hERG (KCNH2) (Homo sapiens, UniProt Q12809); assay: Inhibition of human ERG assessed as reduction in channel current at 100 uM by automated patch-clamp electrophysiology assay
[20] = tested on: CCRF-CEM; assay: Antiproliferative activity against human CCRF-CEM cells assessed as cell growth at 10^-8 M after 48 hrs by sulforhodamine B assay; format: functional; conditions: read-out: Activity
[21] = Antiproliferative activity against human MOLT4 cells assessed as cell growth at 10^-8 M after 48 hrs by sulforhodamine B assay; format: functional; conditions: MOLT-4, 48 h, read-out: Activity
[22] = tested on: NCI-H522; assay: Antiproliferative activity against human NCI-H522 cells assessed as cell growth at 10^-8 M after 48 hrs by sulforhodamine B assay; format: functional; conditions: NCI-H522, 48 h, read-out: Activity
[23] = Antiproliferative activity against human HCT15 cells assessed as cell growth at 10^-8 M after 48 hrs by sulforhodamine B assay; format: functional; conditions: HCT-15, 48 h, read-out: Activity
[24] = tested on: NCI-H460; assay: Antiproliferative activity against human NCI-H460 cells assessed as cell growth at 10^-6 M after 48 hrs by sulforhodamine B assay; format: functional; conditions: NCI-H460, 48 h, read-out: Activity
[25] = tested on: SR; assay: Antiproliferative activity against human SR cells assessed as cell growth at 10^-4 M after 48 hrs by sulforhodamine B assay; format: functional; conditions: read-out: Activity
[26] = Antiproliferative activity against human COLO205 cells assessed as cell growth at 10^-4 M after 48 hrs by sulforhodamine B assay; format: functional; conditions: COLO 205, 48 h, read-out: Activity
[27] = tested on: HT-29; assay: Antiproliferative activity against human HT-29 cells assessed as cell growth at 10^-4 M after 48 hrs by sulforhodamine B assay; format: functional; conditions: HT-29, 48 h, read-out: Activity
[28] = Antiproliferative activity against human LOXIMVI cells assessed as cell growth at 10^-4 M after 48 hrs by sulforhodamine B assay; format: functional; conditions: LOX IMVI, read-out: Activity
[29] = tested on: MDA-MB-435; assay: Antiproliferative activity against human MDA-MB-435 cells assessed as cell growth at 10^-8 M after 48 hrs by sulforhodamine B assay; format: functional; conditions: MDA-MB-435, 48 h, read-out: Activity
[30] = Antiproliferative activity against human OVCAR4 cells assessed as cell growth at 10^-8 M after 48 hrs by sulforhodamine B assay; format: functional; conditions: OVCAR-4, 48 h, read-out: Activity
[31] = Antiproliferative activity against human TK10 cells assessed as cell growth at 10^-8 M after 48 hrs by sulforhodamine B assay; format: functional; conditions: TK-10, 48 h, read-out: Activity
[32] = tested on: MCF7; assay: Antiproliferative activity against human MCF7 cells assessed as cell growth at 10^-8 M after 48 hrs by sulforhodamine B assay; format: functional; conditions: MCF7, 48 h, read-out: Activity
[33] = Antiproliferative activity against human OVCAR8 cells assessed as cell growth at 10^-4 M after 48 hrs by sulforhodamine B assay; format: functional; conditions: OVCAR-8, 48 h, read-out: Activity
[34] = tested on: MDA-MB-231; assay: Antiproliferative activity against human MDA-MB-231 cells assessed as cell growth at 10^-4 M after 48 hrs by sulforhodamine B assay; format: functional; conditions: MDA-MB-231, 48 h, read-out: Activity

Chain of hERG (KCNH2) (Q12809 whole entry): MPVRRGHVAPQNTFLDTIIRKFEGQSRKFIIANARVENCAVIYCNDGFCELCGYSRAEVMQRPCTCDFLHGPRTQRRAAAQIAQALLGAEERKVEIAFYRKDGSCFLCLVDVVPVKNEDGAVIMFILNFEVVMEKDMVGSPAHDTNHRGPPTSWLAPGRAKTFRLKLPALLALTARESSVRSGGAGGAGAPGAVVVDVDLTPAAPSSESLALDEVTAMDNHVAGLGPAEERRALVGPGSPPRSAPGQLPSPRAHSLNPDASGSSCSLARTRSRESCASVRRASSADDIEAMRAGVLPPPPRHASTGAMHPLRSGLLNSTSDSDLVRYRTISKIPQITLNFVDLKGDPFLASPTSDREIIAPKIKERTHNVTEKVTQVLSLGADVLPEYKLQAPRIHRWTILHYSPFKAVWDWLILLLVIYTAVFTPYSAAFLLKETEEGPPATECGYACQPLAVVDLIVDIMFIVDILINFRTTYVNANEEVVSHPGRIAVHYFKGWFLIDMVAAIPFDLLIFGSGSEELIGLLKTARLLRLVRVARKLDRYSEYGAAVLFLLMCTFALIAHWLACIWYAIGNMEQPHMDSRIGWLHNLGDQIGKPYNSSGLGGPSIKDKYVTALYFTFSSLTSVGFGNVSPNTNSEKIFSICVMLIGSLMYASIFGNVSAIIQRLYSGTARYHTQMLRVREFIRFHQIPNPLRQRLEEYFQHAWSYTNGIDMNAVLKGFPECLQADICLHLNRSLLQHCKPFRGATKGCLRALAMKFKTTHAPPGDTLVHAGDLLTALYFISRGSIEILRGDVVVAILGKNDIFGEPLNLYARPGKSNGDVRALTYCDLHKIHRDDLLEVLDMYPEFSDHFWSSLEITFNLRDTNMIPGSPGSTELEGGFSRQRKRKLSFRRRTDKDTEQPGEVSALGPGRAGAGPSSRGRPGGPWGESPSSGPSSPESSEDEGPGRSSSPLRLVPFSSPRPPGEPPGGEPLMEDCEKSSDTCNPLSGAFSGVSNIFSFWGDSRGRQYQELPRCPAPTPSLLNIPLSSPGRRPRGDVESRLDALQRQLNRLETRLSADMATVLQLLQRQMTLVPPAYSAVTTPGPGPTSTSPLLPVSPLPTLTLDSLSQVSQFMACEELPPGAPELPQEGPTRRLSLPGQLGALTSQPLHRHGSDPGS
Chain of CYP2C9 (P11712 whole entry): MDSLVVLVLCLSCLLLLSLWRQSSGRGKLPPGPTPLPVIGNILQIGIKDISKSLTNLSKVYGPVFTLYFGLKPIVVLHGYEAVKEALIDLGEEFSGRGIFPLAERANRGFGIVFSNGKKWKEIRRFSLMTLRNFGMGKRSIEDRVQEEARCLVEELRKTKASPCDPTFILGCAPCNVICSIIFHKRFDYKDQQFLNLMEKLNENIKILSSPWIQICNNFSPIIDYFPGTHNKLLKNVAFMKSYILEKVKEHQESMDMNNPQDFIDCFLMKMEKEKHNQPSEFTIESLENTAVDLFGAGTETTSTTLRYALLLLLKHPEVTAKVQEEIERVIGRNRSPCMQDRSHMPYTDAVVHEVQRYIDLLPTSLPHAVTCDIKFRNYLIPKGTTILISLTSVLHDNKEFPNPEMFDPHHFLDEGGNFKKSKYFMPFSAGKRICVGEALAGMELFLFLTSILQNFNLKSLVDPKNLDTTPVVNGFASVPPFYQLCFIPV

CNC(=O)c1cc(Oc2ccc3nc(NC(=O)Nc4ccc(Cl)c(Cl)c4)sc3c2)ccn1
GI50 [1]: 2.24 µM
TGI [1]: 4.09 µM
CC50 [1]: 7.45 µM
GI50 [2]: 2.06 µM
TGI [2]: 4.03 µM
CC50 [2]: 7.89 µM
growth at 0.1 µM [3]: 102%
growth at 0.1 µM [4]: 107%
growth at 0.1 µM [5]: 109%
growth at 0.1 µM [6]: 101%
growth at 0.1 µM [7]: 97%
growth at 0.1 µM [8]: 100%
growth at 0.1 µM [9]: 99%
growth at 100 µM [10]: 6%
GI50 [11]: 1.74 µM
TGI [11]: 3.56 µM
CC50 [11]: 7.31 µM
growth at 0.1 µM [12]: 118%
growth at 0.1 µM [13]: 101%
GI50 [14]: 1.53 µM
TGI [14]: 3.13 µM
CC50 [14]: 6.41 µM
GI50 [15]: 6.47 µM
LC50 [15]: > 100 µM
TGI [15]: > 100 µM
GI50 [16]: > 100 µM
TGI [16]: > 100 µM
CC50 [16]: > 100 µM
GI50 [17]: 2.65 µM
TGI [17]: > 100 µM
CC50 [17]: > 100 µM
activity at 5 min, 10 µM [18]: 90%
inhibition at 100 µM [19]: 47.9%
growth at 0.01 µM [20]: 102%
growth at 0.01 µM [21]: 92%
growth at 0.01 µM [22]: 98%
growth at 0.01 µM [23]: 89%
growth at 1 µM [24]: 107%
growth at 100 µM [25]: 50%
growth at 100 µM [26]: 26%
growth at 100 µM [27]: -49%
growth at 100 µM [28]: -62%
growth at 0.01 µM [29]: 89%
growth at 0.01 µM [30]: 93%
growth at 0.01 µM [31]: 107%
growth at 0.01 µM [32]: 87%
growth at 100 µM [33]: -52%
growth at 100 µM [34]: -44%

CNC(=O)c1cc(Oc2ccc3nc(NC(=O)Nc4cc(C(F)(F)F)cc(C(F)(F)F)c4)sc3c2)ccn1
GI50 [1]: 1.43 µM
TGI [1]: 3.18 µM
CC50 [1]: 7.09 µM
GI50 [2]: 0.958 µM
TGI [2]: 2.73 µM
CC50 [2]: 7.58 µM
growth at 0.1 µM [3]: 31%
growth at 0.1 µM [4]: 108%
growth at 0.1 µM [5]: 108%
growth at 0.1 µM [6]: 105%
growth at 0.1 µM [7]: 105%
growth at 0.1 µM [8]: 95%
growth at 0.1 µM [9]: 106%
growth at 100 µM [10]: -63%
GI50 [11]: 1.29 µM
TGI [11]: 2.93 µM
CC50 [11]: 6.62 µM
growth at 0.1 µM [12]: 97%
growth at 0.1 µM [13]: 97%
GI50 [14]: 1.08 µM
TGI [14]: 2.41 µM
CC50 [14]: 5.38 µM
GI50 [15]: 0.514 µM
LC50 [15]: 31.6 µM
TGI [15]: 2.6 µM
GI50 [16]: 0.784 µM
TGI [16]: 4.86 µM
CC50 [16]: > 100 µM
GI50 [17]: 1.05 µM
TGI [17]: 2.93 µM
CC50 [17]: 8.23 µM
activity at 5 min, 10 µM [18]: 88.2%
inhibition at 100 µM [19]: 30.2%
growth at 0.01 µM [20]: 111%
growth at 0.01 µM [22]: 95%
growth at 0.01 µM [23]: 88%
growth at 1 µM [24]: 62%
growth at 100 µM [25]: -53%
growth at 100 µM [26]: -65%
growth at 100 µM [27]: -82%
growth at 100 µM [28]: -62%
growth at 0.01 µM [29]: 92%
growth at 0.01 µM [30]: 88%
growth at 0.01 µM [31]: 95%
growth at 0.01 µM [32]: 85%
growth at 100 µM [33]: -96%
growth at 100 µM [34]: -59%

CNC(=O)c1cc(Oc2ccc3nc(NC(=O)Nc4ccc(Cl)c(C(F)(F)F)c4)sc3c2)ccn1
GI50 [1]: 1.89 µM
TGI [1]: 4.21 µM
CC50 [1]: 9.39 µM
GI50 [2]: 1.59 µM
TGI [2]: 3.31 µM
growth at 0.1 µM [3]: 110%
growth at 0.1 µM [4]: 101%
growth at 0.1 µM [5]: 103%
growth at 0.1 µM [6]: 108%
growth at 0.1 µM [7]: 99%
growth at 0.1 µM [8]: 102%
growth at 0.1 µM [9]: 101%
growth at 100 µM [10]: -6%
GI50 [11]: 1.56 µM
growth at 0.1 µM [12]: 99%
growth at 0.1 µM [13]: 109%
GI50 [14]: 1.79 µM
TGI [14]: 3.71 µM
CC50 [14]: 7.66 µM
GI50 [15]: 0.412 µM
LC50 [15]: > 100 µM
TGI [15]: 9.1 µM
TGI [16]: > 100 µM
CC50 [16]: > 100 µM
GI50 [17]: 1.72 µM
CC50 [17]: > 100 µM
activity at 5 min, 10 µM [18]: 98.5%
inhibition at 100 µM [19]: 26.2%
growth at 0.01 µM [20]: 105%
growth at 0.01 µM [21]: 106%
growth at 0.01 µM [22]: 98%
growth at 0.01 µM [23]: 97%
growth at 1 µM [24]: 86%
growth at 100 µM [25]: -11%
growth at 100 µM [26]: 53%
growth at 100 µM [27]: 68%
growth at 100 µM [28]: 11%
growth at 0.01 µM [29]: 91%
growth at 0.01 µM [30]: 93%
growth at 0.01 µM [31]: 104%
growth at 0.01 µM [32]: 92%
growth at 100 µM [33]: -25%
growth at 100 µM [34]: -53%
